Laboratory results from patent publication US9095598B2, “Stilbenoid derivatives and their uses” (The Board of Trustees of the University of Arkansas, priority 2010, dated 2015).
Read-outs that look alike come from different tables or passages of the source.

Columns and labels:
[1] = system: CB1 receptors; assay type: biochemical, mouse; settings: 10 μM, 30 min at 30° C.
[2] = target: T1, human recombinant UGT1A1 (Homo sapiens, UniProt P22309); test: Glucuronidation by recombinant human UGT1A1 (activity screen and kinetic constants); settings: for Kinetics (model): — = No activity; for glucuronide formation, in words (FIG. 1): substrate 250 μM, UDP-GlcUA 4 mM
T1 sequence (P22309 26-533): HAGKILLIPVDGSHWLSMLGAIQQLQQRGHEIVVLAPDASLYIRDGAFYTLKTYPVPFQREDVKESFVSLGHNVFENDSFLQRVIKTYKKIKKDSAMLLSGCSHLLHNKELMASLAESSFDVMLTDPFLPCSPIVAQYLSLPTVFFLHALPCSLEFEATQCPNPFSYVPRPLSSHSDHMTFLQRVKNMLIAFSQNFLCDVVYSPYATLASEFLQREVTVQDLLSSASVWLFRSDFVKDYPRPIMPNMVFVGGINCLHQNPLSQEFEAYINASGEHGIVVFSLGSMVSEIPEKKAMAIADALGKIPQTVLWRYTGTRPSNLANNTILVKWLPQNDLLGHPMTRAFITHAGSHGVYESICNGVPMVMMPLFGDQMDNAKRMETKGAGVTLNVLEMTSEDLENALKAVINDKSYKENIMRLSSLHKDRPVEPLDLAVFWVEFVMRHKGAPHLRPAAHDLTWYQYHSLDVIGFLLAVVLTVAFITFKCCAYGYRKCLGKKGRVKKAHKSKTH
Experimental: (§1) Eight human recombinant UGT1A isoforms (UGT1A1, 1A3, 1A4, 1A6, 1A7, 1A8, 1A9, and 1A10; 5 μg) expressed as His-tag proteins in baculovirus-infected Sf9 insect cells and human liver microsomes (from one donor; HL2; 50 μg) and human intestinal microsomes (from two donors; HI36 and HI41; 50 μg) were evaluated for their ability to glucuronidate these four compounds. The concentrations of the substrate and co-substrate (i.e., UDP-GlcUA) were 250 μM and 4 mM, respectively. Glucuronidation products were analyzed by HPLC and LCMS/MS.
(§2) The kinetic constants of the glucuronidation reactions using recombinant human UGT1A1 and UGT1A10 were determined by measuring the enzyme activity in the presence of increasing concentrations of substrate (see FIG. 2).

[3] = target: T2, human recombinant UGT1A10 (Homo sapiens, UniProt Q9HAW8); test: Glucuronidation by recombinant human UGT1A10 (activity screen and kinetic constants); settings: for glucuronide formation, in words (FIG. 1): substrate 250 μM, UDP-GlcUA 4 mM
T2 sequence (Q9HAW8 26-530): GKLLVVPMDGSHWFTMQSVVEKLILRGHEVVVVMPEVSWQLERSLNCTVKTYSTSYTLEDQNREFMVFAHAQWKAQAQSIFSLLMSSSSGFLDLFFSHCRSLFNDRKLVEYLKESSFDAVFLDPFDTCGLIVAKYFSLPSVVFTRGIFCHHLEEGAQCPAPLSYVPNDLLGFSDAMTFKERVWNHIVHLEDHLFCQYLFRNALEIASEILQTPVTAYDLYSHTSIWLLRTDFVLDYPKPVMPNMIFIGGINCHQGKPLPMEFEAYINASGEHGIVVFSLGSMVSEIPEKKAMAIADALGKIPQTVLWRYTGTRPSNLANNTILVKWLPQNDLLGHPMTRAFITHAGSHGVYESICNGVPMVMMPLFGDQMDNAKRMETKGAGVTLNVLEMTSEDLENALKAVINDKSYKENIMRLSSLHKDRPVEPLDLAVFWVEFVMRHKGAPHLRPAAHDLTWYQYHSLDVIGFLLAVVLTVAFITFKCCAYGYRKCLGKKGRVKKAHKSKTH
Experimental: as §1, §2

[4] = target: T3, CB1 receptors (Mus musculus, UniProt P47746); assay type: biochemical
T3 construct: from tissue; host or cells: mouse brain membranes

[5] = target: T4, human CB2 (Homo sapiens, UniProt P34972); test: CB2 receptor binding, CHO-hCB2 membranes, 3H-CP 55,940 displacement; settings: 0.2 nM 3H-CP 55,940, 90 min room temperature
T4 construct: expressed in transfected cells; host or cells: CHO cells, stably transformed; membrane preparations
Experimental: (§3) Membrane preparations were prepared from mouse brain to examine CB1 binding. For CB2 binding, membrane preparations were prepared from CHO cells stably transformed with human CB2.

[6] = target: T5, CB1 receptors (mouse brain-mCB1 membranes) (Mus musculus, UniProt P47746); test: CB1 receptor binding, mouse brain membranes, 3H-CP 55,940 displacement
T5 construct: from tissue; host or cells: mouse brain membranes
Experimental: as §3

[7] = system: sepsis-induced renal injury (CLP); test: Murine cecal ligation and puncture (CLP) model of sepsis-induced renal injury; assay type: in vivo, mice; settings: 30 mg/kg i.p. 30 min prior to and 6 hr post CLP; 18 hr post CLP
Excerpt: Control (sham) mice underwent surgery but not CLP. Each treatment group contained 4-5 mice. Renal ONOO^− generation (rhodamine fluorescence) and renal peritubular capillary perfusion were quantified using intravital video microscopy (IVVM) on anesthetized mice in each of the treatment groups.

[8] = target: T1, human recombinant UGT1A1; settings: 250 μM
Experimental: as §1, §2

[9] = target: T2, human recombinant UGT1A10; settings: 250 μM
Experimental: as §1, §2

[10] = product 4′-glucuronide (4′G), USI = substrate inhibition

T4 sequence (P34972 whole entry): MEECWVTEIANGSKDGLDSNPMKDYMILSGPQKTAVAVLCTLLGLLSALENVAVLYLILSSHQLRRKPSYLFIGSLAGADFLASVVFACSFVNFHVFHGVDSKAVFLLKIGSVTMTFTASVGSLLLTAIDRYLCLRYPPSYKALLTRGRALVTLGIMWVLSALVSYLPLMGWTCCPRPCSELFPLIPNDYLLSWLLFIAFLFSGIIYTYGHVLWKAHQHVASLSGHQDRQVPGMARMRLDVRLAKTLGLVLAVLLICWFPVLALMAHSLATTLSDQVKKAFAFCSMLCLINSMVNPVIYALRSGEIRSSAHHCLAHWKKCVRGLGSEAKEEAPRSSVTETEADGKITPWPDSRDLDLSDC
T3 sequence (P47746 whole entry): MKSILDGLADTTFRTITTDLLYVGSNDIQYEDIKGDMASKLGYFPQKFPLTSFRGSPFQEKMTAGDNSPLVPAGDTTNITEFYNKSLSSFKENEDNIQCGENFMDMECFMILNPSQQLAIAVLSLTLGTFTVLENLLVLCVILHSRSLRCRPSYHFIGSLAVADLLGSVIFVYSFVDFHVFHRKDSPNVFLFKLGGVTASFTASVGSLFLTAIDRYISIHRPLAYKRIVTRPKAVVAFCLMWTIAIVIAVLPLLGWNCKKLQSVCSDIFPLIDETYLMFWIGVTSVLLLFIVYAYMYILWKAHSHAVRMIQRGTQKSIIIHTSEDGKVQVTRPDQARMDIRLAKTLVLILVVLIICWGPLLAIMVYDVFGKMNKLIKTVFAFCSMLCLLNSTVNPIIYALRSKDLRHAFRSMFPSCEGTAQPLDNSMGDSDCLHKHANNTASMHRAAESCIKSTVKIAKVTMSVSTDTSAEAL
T5 sequence (P47746 whole entry): as above

Oc1cc(O)cc(/C=C/c2ccc(O)c(O)c2)c1 [tPice, trans-piceatannol]
effect on basal G-protein activity, in words [1]: markedly reduced
Kinetics (model) ([2]; product 3-glucuronide (3G)): M-M
Kinetics (model) ([2]; product 4′-glucuronide (4′G)): M-M
Kinetics (model) ([3]; product 3-glucuronide (3G), — = No activity): M-M
Kinetics (model) [3, 10]: Hill

CCCCCCC(C)(C)c1ccc([C@@H]2C[C@H](O)CC[C@H]2CCCO)c(O)c1 [CP-55,940, reference compound]
effect on G-protein activity, in words ([4]; 1 μM, 30 min at 30° C.): stimulated
maximal response produced by CP-55,940 ([4]; CP-55,940 alone): 0.34+/−0.03 pmole/mg protein

trans-arachidin-1 [tA1]
Ki [5]: 12.6 ± 1.7 µM
enhancement of binding affinity for CB1 (isoprenyl plus additional hydroxyl group) [6]: 2 fold
increase (shift-to-the-right) in the ED50 of CP-55,940 ([4]; 10 μM tA-1): 7 fold
maximal response produced by CP-55,940 in presence of test compound ([4]; with tA-1 (10 μM)): 0.22+/−0.04 pmole/mg protein
effect on basal G-protein activity, in words [1]: markedly reduced
glucuronide formation, in words (FIG. 1) [2]: completely blocked formation of any Gluc
Kinetics (model) [3, 10]: substrate inhibition kinetics and USI
glucuronide formation, in words (FIG. 1) [3]: formation of the 3-O-Gluc

CC(C)/C=C/c1c(O)cc(/C=C/c2ccc(O)cc2)cc1O [tA3, trans-arachidin-3]
Ki [5]: 11.3 ± 0.6 µM
effect on basal G-protein activity, in words [1]: little effect
Kinetics (model) ([2]; product 3-glucuronide (3G)): M-M
Kinetics (model) ([2]; product 4′-glucuronide (4′G)): M-M
glucuronide formation, in words (FIG. 1) [2]: significant inhibition of 3-O-glucuronidation
Kinetics (model) [3, 10]: USI
Kinetics (model) ([3]; product 4′-glucuronide (4′G), USI = substrate inhibition, listed as 1A3): substrate inhibition kinetics
glucuronide formation, in words (FIG. 1) [3]: significant inhibition of 3-O-glucuronidation

CC1=CC[C@@H]2[C@@H](C1)c1c(O)cc(CC#CCCCNS(C)(=O)=O)cc1OC2(C)C [O-2050, reference compound]
effect of co-incubation on CP-55,940 stimulation and AM251 inhibition of G-protein activity ([4]; data not shown): blocked

Oc1ccc(/C=C/c2cc(O)cc(O)c2)cc1 [tRes, trans-resveratrol]
Ki [5]: 65.5 ± 12 µM
RNS generation in the kidney (rhodamine fluorescence, IVVM) [7]: blocked RNS generation in the kidney
renal peritubular capillary perfusion (IVVM) [7]: preserved renal capillary perfusion
effect on basal G-protein activity, in words [1]: little effect
glucuronide formation, in words (FIG. 1) [8]: glucuronidated to 3-O— and 4′-O-Glucs
glucuronide formation, in words (FIG. 1) [9]: glucuronidated to 3-O— and 4′-O-Glucs
